Patent publication US11667649B2, “Heteroaromatic macrocyclic ether chemotherapeutic agents” (Nuvalent, Inc., priority 2020, dated 2023)

Tested on: TPM3-NTRK1-wt IC50 / primary target (e.g. CD74-ROS1-wt) IC50, Ba/F3 cells
Assay: Cell assay TRKA selectivity (TRKA potency divided by primary target potency)
Assay type: cell-based
Settings: for TPM3-NTRK1-wt/CD74-ROS1-G2032R: TRKA selectivity ratio: TPM3-NTRK1-wt IC50 / CD74-ROS1-G2032R IC50, Ba/F3 cells; for TPM3-NTRK1-wt/CD74-ROS1-wt: TRKA selectivity ratio: TPM3-NTRK1-wt IC50 / CD74-ROS1-wt IC50, Ba/F3 cells; for TPM3-NTRK1-wt/EML4-ALK-L1196M-G1202R: TRKA selectivity ratio: TPM3-NTRK1-wt IC50 / EML4-ALK-L1196M-G1202R IC50, Ba/F3 cells; for TPM3-NTRK1-wt/EML4-ALK-wt: TRKA selectivity ratio: TPM3-NTRK1-wt IC50 / EML4-ALK-wt IC50, Ba/F3 cells
In short: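 IL-3-independent Ba/F3 lines stably expressing TPM3-TRKA or the primary fusion (e.g. CD74-ROS1 wt) were exposed to 3-fold compound dilutions for 72 h. Viability was read by CellTiter-Glo luminescence, with IC50 from four-parameter logistic fit. Selectivity is TPM3-NTRK1 IC50 divided by primary-target IC50, binned A (>30-fold) to D (<1).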

C[C@H]1Oc2cc(cnc2N)-c2c(cnn2CC2CC2)Cc2cccnc2-c2ccc(F)cc21 [Example 137, (20R)-3-(cyclopropylmethyl)-17-fluoro-20-methyl-21-oxa-3,4,12,24-tetraazapentacyclo[20.3.1.0^2,^6.0^8,^13.0^14,^19]hexacosa-1(25),2(6),4,8(13),9,11,14,16,18,22(26),23-undecaen-23-amine]
TPM3-NTRK1-wt/CD74-ROS1-G2032R: A (bin A for very high selectivity, ratio>30-fold) | TPM3-NTRK1-wt/CD74-ROS1-wt: A (bin A for very high selectivity, ratio>30-fold) | TPM3-NTRK1-wt/EML4-ALK-L1196M-G1202R: A (bin A for very high selectivity, ratio>30-fold) | TPM3-NTRK1-wt/EML4-ALK-wt: A (bin A for very high selectivity, ratio>30-fold)

C[C@H]1Oc2cc(cnc2N)-c2c(C#N)nnn2Cc2cccnc2-c2ccc(F)cc21 [Example 25, (20R)-23-amino-17-fluoro-20-methyl-21-oxa-4,5,6,12,24-pentaazapentacyclo[20.3.1.0^2,^6.0^8,^13.0^14,^19]hexacosa-1(25),2,4,8(13),9,11,14,16,18,22(26),23-undecaene-3-carbonitrile]
TPM3-NTRK1-wt/CD74-ROS1-G2032R: A (bin A for very high selectivity, ratio>30-fold) | TPM3-NTRK1-wt/CD74-ROS1-wt: A (bin A for very high selectivity, ratio>30-fold) | TPM3-NTRK1-wt/EML4-ALK-L1196M-G1202R: B (bin B for high selectivity, ratio>10-fold) | TPM3-NTRK1-wt/EML4-ALK-wt: A (bin A for very high selectivity, ratio>30-fold)

C[C@H]1Oc2cc(cnc2N)-c2c(CC3CC3)cnn2Cc2cccnc2-c2ccc(F)cc21 [Example 146, (20R)-3-(cyclopropylmethyl)-17-fluoro-20-methyl-21-oxa-5,6,12,24-tetraazapentacyclo[20.3.1.0^2,^6.0^8,^13.0^14,^19]hexacosa-1(25),2,4,8(13),9,11,14,16,18,22(26),23-undecaen-23-amine]
TPM3-NTRK1-wt/CD74-ROS1-G2032R: A (bin A for very high selectivity, ratio>30-fold) | TPM3-NTRK1-wt/CD74-ROS1-wt: A (bin A for very high selectivity, ratio>30-fold) | TPM3-NTRK1-wt/EML4-ALK-L1196M-G1202R: B (bin B for high selectivity, ratio>10-fold) | TPM3-NTRK1-wt/EML4-ALK-wt: A (bin A for very high selectivity, ratio>30-fold)

Cn1cc2c(n1)-c1ccc(F)cc1COc1cc(cnc1N)-c1c(cnn1C1CCC1)C2 [Example 7, 3-cyclobutyl-16-fluoro-10-methyl-20-oxa-3,4,10,11,23-pentaazapentacyclo[19.3.1.0^2,^6.0^8,^12.0^13,^18]pentacosa-1(24),2(6),4,8,11,13,15,17,21(25),22-decaen-22-amine]
TPM3-NTRK1-wt/CD74-ROS1-G2032R: A (bin A for very high selectivity, ratio>30-fold) | TPM3-NTRK1-wt/EML4-ALK-L1196M-G1202R: A (bin A for very high selectivity, ratio>30-fold)

CCc1nsc2c1-c1cnc(N)c(c1)O[C@H](C)c1cc(F)ccc1-c1nn(C)cc1C2 [Example 155, (19R)-3-ethyl-16-fluoro-10,19-dimethyl-20-oxa-5-thia-4,10,11,23-tetraazapentacyclo[19.3.1.0^2,^6.0^8,^12.0^13,^18]pentacosa-1(24),2(6),3,8,11,13,15,17,21(25),22-decaen-22-amine]
TPM3-NTRK1-wt/CD74-ROS1-G2032R: C (bin C for moderate selectivity, ratio≥1) | TPM3-NTRK1-wt/CD74-ROS1-wt: A (bin A for very high selectivity, ratio>30-fold) | TPM3-NTRK1-wt/EML4-ALK-L1196M-G1202R: D (bin D for low selectivity, ratio<1) | TPM3-NTRK1-wt/EML4-ALK-wt: A (bin A for very high selectivity, ratio>30-fold)

CCn1ncc2c1-c1cnc(N)c(c1)O[C@H](C)c1cc(F)ccc1-n1ncc(C#N)c1C2 [Example 47, (19R)-22-amino-3-ethyl-16-fluoro-19-methyl-20-oxa-3,4,11,12,23-pentaazapentacyclo[19.3.1.0^2,^6.0^8,^12.0^13,^18]pentacosa-1(24),2(6),4,8,10,13,15,17,21(25),22-decaene-9-carbonitrile]
TPM3-NTRK1-wt/CD74-ROS1-G2032R: A (bin A for very high selectivity, ratio>30-fold) | TPM3-NTRK1-wt/CD74-ROS1-wt: A (bin A for very high selectivity, ratio>30-fold) | TPM3-NTRK1-wt/EML4-ALK-L1196M-G1202R: C (bin C for moderate selectivity, ratio≥1) | TPM3-NTRK1-wt/EML4-ALK-wt: B (bin B for high selectivity, ratio>10-fold)

CCn1ncc2c1-c1cnc(N)c(c1)O[C@H](C)c1cc(F)ccc1-c1nc(OC)ccc1C2 [Example 145, (20R)-3-ethyl-17-fluoro-11-methoxy-20-methyl-21-oxa-3,4,12,24-tetraazapentacyclo[20.3.1.0^2,^6.0^8,^13.0^14,^19]hexacosa-1(25),2(6),4,8(13),9,11,14,16,18,22(26),23-undecaen-23-amine]
TPM3-NTRK1-wt/CD74-ROS1-G2032R: A (bin A for very high selectivity, ratio>30-fold) | TPM3-NTRK1-wt/CD74-ROS1-wt: A (bin A for very high selectivity, ratio>30-fold) | TPM3-NTRK1-wt/EML4-ALK-L1196M-G1202R: C (bin C for moderate selectivity, ratio≥1) | TPM3-NTRK1-wt/EML4-ALK-wt: A (bin A for very high selectivity, ratio>30-fold)

CCn1cc2c(n1)-c1ccc(F)cc1[C@@H](C)Oc1cc(cnc1N)-c1c(cnn1CC1CC1)C2 [Example 140, (19R)-3-(cyclopropylmethyl)-10-ethyl-16-fluoro-19-methyl-20-oxa-3,4,10,11,23-pentaazapentacyclo[19.3.1.0^2,^6.0^8,^12.0^13,^18]pentacosa-1(24),2(6),4,8,11,13,15,17,21(25),22-decaen-22-amine]
TPM3-NTRK1-wt/CD74-ROS1-G2032R: A (bin A for very high selectivity, ratio>30-fold) | TPM3-NTRK1-wt/CD74-ROS1-wt: A (bin A for very high selectivity, ratio>30-fold) | TPM3-NTRK1-wt/EML4-ALK-L1196M-G1202R: A (bin A for very high selectivity, ratio>30-fold) | TPM3-NTRK1-wt/EML4-ALK-wt: A (bin A for very high selectivity, ratio>30-fold)

CCc1nn(C)c2c1-c1cnc(N)c(c1)OCc1cc(F)ccc1-c1nn(C)cc1C2 [Example 176, 3-ethyl-16-fluoro-5,10-dimethyl-20-oxa-4,5,10,11,23-pentaazapentacyclo[19.3.1.0^2,^6.0^8,^12.0^13,^18]pentacosa-1(24),2(6),3,8,11,13,15,17,21(25),22-decaen-22-amine]
TPM3-NTRK1-wt/CD74-ROS1-G2032R: A (bin A for very high selectivity, ratio>30-fold) | TPM3-NTRK1-wt/CD74-ROS1-wt: A (bin A for very high selectivity, ratio>30-fold) | TPM3-NTRK1-wt/EML4-ALK-L1196M-G1202R: B (bin B for high selectivity, ratio>10-fold) | TPM3-NTRK1-wt/EML4-ALK-wt: A (bin A for very high selectivity, ratio>30-fold)

C[C@H]1Oc2cc(cnc2N)-c2c(nnn2CC2CC2)Cc2cc(F)cnc2-c2ccc(F)cc21 [Example 106, (20R)-3-(cyclopropylmethyl)-10,17-difluoro-20-methyl-21-oxa-3,4,5,12,24-pentaazapentacyclo[20.3.1.0^2,^6.0^8,^13.0^14,^19]hexacosa-1(25),2(6),4,8(13),9,11,14,16,18,22(26),23-undecaen-23-amine]
TPM3-NTRK1-wt/CD74-ROS1-G2032R: A (bin A for very high selectivity, ratio>30-fold) | TPM3-NTRK1-wt/CD74-ROS1-wt: A (bin A for very high selectivity, ratio>30-fold) | TPM3-NTRK1-wt/EML4-ALK-L1196M-G1202R: B (bin B for high selectivity, ratio>10-fold) | TPM3-NTRK1-wt/EML4-ALK-wt: A (bin A for very high selectivity, ratio>30-fold)

CCc1nnn2c1-c1cnc(N)c(c1)O[C@H](C)c1cc(F)ccc1-c1ncc(F)cc1C2 [Example 16, (20R)-3-ethyl-10,17-difluoro-20-methyl-21-oxa-4,5,6,12,24-pentaazapentacyclo[20.3.1.0^2,^6.0^8,^13.0^14,^19]hexacosa-1(25),2,4,8(13),9,11,14,16,18,22(26),23-undecaen-23-amine]
TPM3-NTRK1-wt/CD74-ROS1-G2032R: B (bin B for high selectivity, ratio>10-fold) | TPM3-NTRK1-wt/CD74-ROS1-wt: A (bin A for very high selectivity, ratio>30-fold) | TPM3-NTRK1-wt/EML4-ALK-L1196M-G1202R: C (bin C for moderate selectivity, ratio≥1) | TPM3-NTRK1-wt/EML4-ALK-wt: B (bin B for high selectivity, ratio>10-fold)

C[C@H]1Oc2cc(cnc2N)-c2c(CC3CC3)nn(C)c2Cc2cn(C)nc2-c2ccc(F)cc21 [Example 178, (19R)-3-(cyclopropylmethyl)-16-fluoro-5,10,19-trimethyl-20-oxa-4,5,10,11,23-pentaazapentacyclo[19.3.1.0^2,^6.0^8,^12.0^13,^18]pentacosa-1(24),2(6),3,8,11,13,15,17,21(25),22-decaen-22-amine]
TPM3-NTRK1-wt/CD74-ROS1-G2032R: A (bin A for very high selectivity, ratio>30-fold) | TPM3-NTRK1-wt/CD74-ROS1-wt: A (bin A for very high selectivity, ratio>30-fold) | TPM3-NTRK1-wt/EML4-ALK-L1196M-G1202R: A (bin A for very high selectivity, ratio>30-fold) | TPM3-NTRK1-wt/EML4-ALK-wt: A (bin A for very high selectivity, ratio>30-fold)

CCn1ncc2c1-c1cnc(N)c(c1)O[C@H](C)c1cc(F)ccc1-c1nc(C)oc1C2 [Example 131, (19R)-3-ethyl-16-fluoro-10,19-dimethyl-9,20-dioxa-3,4,11,23-tetraazapentacyclo[19.3.1.0^2,^6.0^8,^12.0^13,^18]pentacosa-1(24),2(6),4,8(12),10,13,15,17,21(25),22-decaen-22-amine]
TPM3-NTRK1-wt/CD74-ROS1-G2032R: B (bin B for high selectivity, ratio>10-fold) | TPM3-NTRK1-wt/CD74-ROS1-wt: A (bin A for very high selectivity, ratio>30-fold) | TPM3-NTRK1-wt/EML4-ALK-L1196M-G1202R: C (bin C for moderate selectivity, ratio≥1) | TPM3-NTRK1-wt/EML4-ALK-wt: B (bin B for high selectivity, ratio>10-fold)

CCn1nnc2c1-c1cnc(N)c(c1)O[C@H](C)c1cc(F)ccc1-c1nn(C)cc1C2 [Example 20, (19R)-3-ethyl-16-fluoro-10,19-dimethyl-20-oxa-3,4,5,10,11,23-hexaazapentacyclo[19.3.1.0^2,^6.0^8,^12.0^13,^18]pentacosa-1(24),2(6),4,8,11,13,15,17,21(25),22-decaen-22-amine]
TPM3-NTRK1-wt/CD74-ROS1-G2032R: A (bin A for very high selectivity, ratio>30-fold) | TPM3-NTRK1-wt/CD74-ROS1-wt: A (bin A for very high selectivity, ratio>30-fold) | TPM3-NTRK1-wt/EML4-ALK-L1196M-G1202R: B (bin B for high selectivity, ratio>10-fold) | TPM3-NTRK1-wt/EML4-ALK-wt: A (bin A for very high selectivity, ratio>30-fold)
